Laboratory results reported in article PMC11514289 (Nature Communications, 2024).

Tests used:
[1] = molecular target: T1, SaSir2-HerA (Staphylococcus aureus, UniProt C1PH93); experiment: biolayer interferometry, protein captured on Ni-NTA sensor; type: binding
T1 sequence (C1PH93 1-428): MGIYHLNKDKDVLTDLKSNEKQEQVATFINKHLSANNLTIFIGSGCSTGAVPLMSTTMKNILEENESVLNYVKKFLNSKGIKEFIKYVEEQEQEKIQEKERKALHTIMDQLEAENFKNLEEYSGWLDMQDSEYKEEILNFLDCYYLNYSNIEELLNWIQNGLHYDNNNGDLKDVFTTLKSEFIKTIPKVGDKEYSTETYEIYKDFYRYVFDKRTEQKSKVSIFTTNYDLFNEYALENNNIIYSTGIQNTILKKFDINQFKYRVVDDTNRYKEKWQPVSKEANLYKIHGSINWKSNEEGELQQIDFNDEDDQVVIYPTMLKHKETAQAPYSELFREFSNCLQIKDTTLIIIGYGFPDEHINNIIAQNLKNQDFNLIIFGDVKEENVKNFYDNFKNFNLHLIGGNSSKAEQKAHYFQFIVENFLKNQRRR
T1 sequence (C1PH94 1-562 partner): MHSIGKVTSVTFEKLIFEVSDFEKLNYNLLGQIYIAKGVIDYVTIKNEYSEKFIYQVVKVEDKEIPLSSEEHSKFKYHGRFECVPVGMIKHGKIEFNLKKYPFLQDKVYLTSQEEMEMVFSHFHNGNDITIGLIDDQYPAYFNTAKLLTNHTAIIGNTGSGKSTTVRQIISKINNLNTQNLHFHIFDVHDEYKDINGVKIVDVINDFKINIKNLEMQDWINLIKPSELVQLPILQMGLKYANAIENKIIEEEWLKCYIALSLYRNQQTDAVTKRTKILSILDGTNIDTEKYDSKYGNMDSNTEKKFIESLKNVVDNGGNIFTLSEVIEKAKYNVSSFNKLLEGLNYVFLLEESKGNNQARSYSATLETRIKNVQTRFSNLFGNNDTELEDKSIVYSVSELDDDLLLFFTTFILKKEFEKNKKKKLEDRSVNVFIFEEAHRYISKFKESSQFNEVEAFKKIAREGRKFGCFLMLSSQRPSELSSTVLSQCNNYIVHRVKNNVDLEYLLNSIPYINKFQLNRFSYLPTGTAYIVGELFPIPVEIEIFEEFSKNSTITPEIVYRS

[2] = molecular target: SaSir2 (Sir2 of Staphylococcus aureus), 6x His-tagged, expressed alone (Staphylococcus aureus); experiment: AUC

Compound	Kd [1]	stoichiometry N [2]
NC(=O)c1ccc[n+]([C@@H]2O[C@H](COP(=O)(O)OP(=O)(O)OC[C@H]3O[C@@H](n4cnc5c(N)ncnc54)[C@H](O)[C@@H]3O)[C@@H](O)[C@H]2O)c1 [NAD^+]	4.39 µM	
SaSir2 (Sir2 of Staphylococcus aureus), 6x His-tagged, expressed alone (enzyme)		2
